Reference: US20130065760A1, “Substituted Pyridines Having Herbicidal Action” (BASF SE, priority 2010, published 2013)

Test system: AMARE
Experiment: greenhouse experiment, post-emergence treatment, herbicidal activity
Type: in vivo, Amaranthus retroflexus
Conditions: post-emergence method, application rate 0.5 kg/ha, scale from 0 to 100
From the text: The seeds of the test plants were sown separately for each species. For the post-emergence treatment, the test plants were first grown to a height of 3 to 15 cm, depending on the plant habit, and only then treated with the active ingredients which had been suspended or emulsified in water. For this purpose, the test plants were either sown directly and grown in the same containers, or they were first grown separately as seedlings and transplanted into the test containers a few days prior to treatment. Depending on the species, the plants were kept at 10-25° C. or 20-35° C. The test period extended over 2 to 4 weeks. During this time, the plants were tended, and their response to the individual treatments was evaluated. Evaluation was carried out using a scale from 0 to 100. 100 means no emergence of the plants, or complete destruction of at least the aerial moieties, and 0 means no damage, or normal course of growth. A good herbicidal activity is given at values of at least 70 and a very good herbicidal activity is given at values of at least 85. The plants used in the greenhouse experiments belonged to the following species: [table]

Substance: 3-[5-chloro-3-morpholino-2-(trifluoromethyl)phenyl]-1-(2,2-difluoroethyl)-4-hydroxy-1,5-naphthyridin-2-one [I-3]
- herbicidal activity against AMARE: very good (a very good herbicidal activity is given at values of at least 85)
